How the values were obtained:
Type in all cases: in vivo
Amaranthus retroflexus [1] = test: Test Example 5: herbicidal effect by foliage application, plastic box (symbol N); conditions: 320 g/ha, 3 weeks after application
Summary of the method: (§1)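 Greenhouse foliar test: seedlings at 14 days, grown 25° C. to 30° C. in sterilized diluvial soil; compound applied as an aqueous dilution of an emulsion; response read 3 weeks after spraying.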

rapeseed = test: Test Example 4: effect on crop by soil treatment (symbol g); conditions: application herbicide amount 320 g/ha
Summary of the method: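 Plants are raised in a greenhouse (25° C. to 30° C.) from spot-sown seed, which sits under about 1.5 cm of sterilized diluvial soil in a box shared with weed species.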

Cyperus difformis = test: Test Example 3: herbicidal effect by foliage application, Wagner pot (symbol E); conditions: application herbicide amount 320 g/ha
Summary of the method: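 In a shallow-flooded alluvial soil system held at 25–30 °C, plants including rice grew for 14 days and were then sprayed over the foliage with emulsion diluted to a fixed herbicide amount. Visual rating followed at 3 weeks.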

[2] = system: Echinochloa oryzacola Vasing.; test: Test Example 1: herbicidal activity, application before weed generation in submerged conditions (symbol A); conditions: application herbicide amount 320 g/ha
Summary of the method: (§2)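 Steps: alluvial soil flooded to 4 cm; weed seeds sown together; rice seedlings (2.5 leaf) transplanted; diluted emulsion applied to water surface the same day as sowing; plants grown at 25–30 °C in greenhouse; herbicidal effect rated on a 0–5 scale at 3 weeks.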

Monochoria vaginalis [3] = test: Test Example 1: herbicidal activity, application before weed generation in submerged conditions (symbol C); conditions: application herbicide amount 320 g/ha
Summary of the method: as §2

[4] = system: directly sowed rice plant; test: Test Example 3: effect on crop by foliage application, Wagner pot (symbol b); conditions: application herbicide amount 320 g/ha
Summary of the method: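 Alluvial soil in a 1/10000-are Wagner pot was flooded to a water depth of 0.1–0.5 cm. Echinochloa crus-galli var. crus-galli, Leptochloa chinensis, Cyperus difformis and rice were sown into it and grown in a greenhouse at 25–30 °C.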

Monochoria vaginalis [5] = test: Test Example 2: herbicidal activity, application during weed generation in submerged conditions (symbol C); conditions: Table 23; application herbicide amount 320 g/ha; grade 0-5 by criteria of Test Example 1
Summary of the method: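 Compound was applied as a water-diluted emulsion into the standing water of flooded pots (4 cm) once co-sown weeds reached one to two leaves. Greenhouse temperature was 25° C. to 30° C., soil was alluvial, and each species was rated visually after 3 weeks.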

[6] = system: Echinochloa crus-galli var. crus-galli; test: Test Example 5: herbicidal effect by foliage application, plastic box (symbol H); conditions: 320 g/ha, 3 weeks after application
Summary of the method: as §1

Digitaria ciliaris = test: Test Example 4: herbicidal effect by soil treatment (symbol F); conditions: application herbicide amount 320 g/ha
Summary of the method: (§3)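 Seeds were sown in sterilized diluvial soil, covered with about 1.5 cm of soil, and the soil surface was sprayed with a water-diluted emulsion of the compound at a predetermined rate. Plants grew in a greenhouse at 25° C. to 30° C.; effects were scored visually 3 weeks after application.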

Alopecurus myosuroides = test: Test Example 5: herbicidal effect by foliage application, plastic box (symbol J); conditions: 320 g/ha, 3 weeks after application
Summary of the method: as §1

Avena fatua = test: Test Example 5: herbicidal effect by foliage application, plastic box (symbol I); conditions: 320 g/ha, 3 weeks after application
Summary of the method: as §1

Galium spurium = test: Test Example 5: herbicidal effect by foliage application, plastic box (symbol Q); conditions: 320 g/ha, 3 weeks after application
Summary of the method: as §1

Amaranthus retroflexus [7] = test: Test Example 4: herbicidal effect by soil treatment (symbol N); conditions: application herbicide amount 320 g/ha
Summary of the method: as §3

Apera spica-venti = test: Test Example 4: herbicidal effect by soil treatment (symbol L); conditions: application herbicide amount 320 g/ha
Summary of the method: as §3

| SMILES | N: Amaranthus retroflexus, herbicidal effect grade (Amaranthus retroflexus [1]) | g (rapeseed) effect on crop grade (rapeseed) | herbicidal effect on E, grade 0-5 (Cyperus difformis) | Herbicidal effect grade, A: Echinochloa oryzacola Vasing. [2] | Herbicidal effect grade, C: Monochoria vaginalis (Monochoria vaginalis [3]) | effect on crop b (directly sowed rice plant), grade 0-5 [4] | Herbicidal effect grade, C: Monochoria vaginalis (Monochoria vaginalis [5]) | H: Echinochloa crus-galli var. crus-galli, herbicidal effect grade [6] | F (Digitaria ciliaris) herbicidal effect grade (Digitaria ciliaris) | J: Alopecurus myosuroides, herbicidal effect grade (Alopecurus myosuroides) | I: Avena fatua, herbicidal effect grade (Avena fatua) | Q: Galium spurium, herbicidal effect grade (Galium spurium) | N (Amaranthus retroflexus) herbicidal effect grade (Amaranthus retroflexus [7]) | L (Apera spica-venti) herbicidal effect grade (Apera spica-venti) |
| --- | --- | --- | --- | --- | --- | --- | --- | --- | --- | --- | --- | --- | --- | --- |
| CC(CC1CC(O)=C(c2c(C)cc(C)cc2C)C1=O)=NOCC(C)O (stereo not shown) [1-027] | 0 (Herbicidal ratio of 5% or lower (almost no effect)) | 4 (Herbicidal ratio of 70% or higher and lower than 90%) | 5 (Herbicidal ratio of 90% or more (almost completely withered)) | 4 (Herbicidal ratio of 70% or higher and lower than 90%) | 3 (Herbicidal ratio of 40% or higher and lower than 70%) | 5 (Herbicidal ratio of 90% or more (almost completely withered)) | 0 (Herbicidal ratio of 5% or lower (almost no effect)) | 5 (Herbicidal ratio of 90% or more (almost completely withered)) | 5 (Herbicidal ratio of 90% or more (almost completely withered)) | 5 (Herbicidal ratio of 90% or more (almost completely withered)) | 5 (Herbicidal ratio of 90% or more (almost completely withered)) | 3 (Herbicidal ratio of 40% or higher and lower than 70%) | 0 (Herbicidal ratio of 5% or lower (almost no effect)) | 5 (Herbicidal ratio of 90% or more (almost completely withered)) |
| CON=C(CC1CC(O)=C(c2c(C)cc(C)cc2C)C1=O)c1ccccn1 (stereo not shown) [1-045] | 0 (Herbicidal ratio of 5% or lower (almost no effect)) | 0 (Herbicidal ratio of 5% or lower (almost no effect)) | 0 (Herbicidal ratio of 5% or lower (almost no effect)) | 5 (Herbicidal ratio of 90% or more (almost completely withered)) | 0 (Herbicidal ratio of 5% or lower (almost no effect)) | 3 (Herbicidal ratio of 40% or higher and lower than 70%) | 0 (Herbicidal ratio of 5% or lower (almost no effect)) | 5 (Herbicidal ratio of 90% or more (almost completely withered)) | 0 (Herbicidal ratio of 5% or lower (almost no effect)) | 5 (Herbicidal ratio of 90% or more (almost completely withered)) | 5 (Herbicidal ratio of 90% or more (almost completely withered)) | 0 (Herbicidal ratio of 5% or lower (almost no effect)) | 0 (Herbicidal ratio of 5% or lower (almost no effect)) | 0 (Herbicidal ratio of 5% or lower (almost no effect)) |
| CCCC(CC1CC(O)=C(c2c(C)cc(C)cc2C)C1=O)=NOC (stereo not shown) [1-062] | 0 (Herbicidal ratio of 5% or lower (almost no effect)) | 3 (Herbicidal ratio of 40% or higher and lower than 70%) | 4 (Herbicidal ratio of 70% or higher and lower than 90%) | 5 (Herbicidal ratio of 90% or more (almost completely withered)) | 1 (Herbicidal ratio of 5% or higher and lower than 20%) | 5 (Herbicidal ratio of 90% or more (almost completely withered)) | 0 (Herbicidal ratio of 5% or lower (almost no effect)) | 4 (Herbicidal ratio of 70% or higher and lower than 90%) | 5 (Herbicidal ratio of 90% or more (almost completely withered)) | 5 (Herbicidal ratio of 90% or more (almost completely withered)) | 4 (Herbicidal ratio of 70% or higher and lower than 90%) | 0 (Herbicidal ratio of 5% or lower (almost no effect)) | 0 (Herbicidal ratio of 5% or lower (almost no effect)) | 4 (Herbicidal ratio of 70% or higher and lower than 90%) |
| CON=C(C)CC1CC(OC)=C(c2c(C)cc(C)cc2C)C1=O (stereo not shown) [1-001, 2-mesityl-3-methoxy-5-{2-(methoxyimino)propyl}cyclopent-2-enone] | 0 (Herbicidal ratio of 5% or lower (almost no effect)) | 0 (Herbicidal ratio of 5% or lower (almost no effect)) | 0 (Herbicidal ratio of 5% or lower (almost no effect)) | 0 (Herbicidal ratio of 5% or lower (almost no effect)) | 0 (Herbicidal ratio of 5% or lower (almost no effect)) | 0 (Herbicidal ratio of 5% or lower (almost no effect)) | 0 (Herbicidal ratio of 5% or lower (almost no effect)) | 0 (Herbicidal ratio of 5% or lower (almost no effect)) | 0 (Herbicidal ratio of 5% or lower (almost no effect)) | 0 (Herbicidal ratio of 5% or lower (almost no effect)) | 0 (Herbicidal ratio of 5% or lower (almost no effect)) | 0 (Herbicidal ratio of 5% or lower (almost no effect)) | 0 (Herbicidal ratio of 5% or lower (almost no effect)) | 0 (Herbicidal ratio of 5% or lower (almost no effect)) |
| CON=C(C)CC1CC(OC(=O)COc2ccc(Cl)cc2)=C(c2c(C)cc(C)cc2C)C1=O (stereo not shown) [1-044] | 2 (Herbicidal ratio of 20% or higher and lower than 40%) | 4 (Herbicidal ratio of 70% or higher and lower than 90%) | 5 (Herbicidal ratio of 90% or more (almost completely withered)) | 5 (Herbicidal ratio of 90% or more (almost completely withered)) | 4 (Herbicidal ratio of 70% or higher and lower than 90%) | 5 (Herbicidal ratio of 90% or more (almost completely withered)) | 3 (Herbicidal ratio of 40% or higher and lower than 70%) | 5 (Herbicidal ratio of 90% or more (almost completely withered)) | 5 (Herbicidal ratio of 90% or more (almost completely withered)) | 5 (Herbicidal ratio of 90% or more (almost completely withered)) | 5 (Herbicidal ratio of 90% or more (almost completely withered)) | 0 (Herbicidal ratio of 5% or lower (almost no effect)) | 4 (Herbicidal ratio of 70% or higher and lower than 90%) | 5 (Herbicidal ratio of 90% or more (almost completely withered)) |

From patent US11000033B2, “Ketone or oxime compound, and herbicide” (NISSAN CHEMICAL CORPORATION, priority 2014, dated 2021)
